Measured values: PubChem BioAssay AID1259407 (Chemical Carcinogenesis Research Information System (CCRIS), 2018)
Active and inactive are the calls of the source. No rule for the calls is given here.

System: CCRIS mutagenicity, Ames/micronucleus/aberration tests
Assay: CCRIS mutagenicity studies

CC(=O)Nc1ccc(O)cc1 was tested, and the mutagenic call (End Point: IN VITRO MICRONUCLEUS, Test System: CHL/IU CELLS, Metabolic Activation: NONE) was “active; positive”, the mutagenic call (End Point: IN VITRO MICRONUCLEUS, Test System: RAT KIDNEY FIBROBLAST NRK-49F, Metabolic Activation: NONE) was “active; positive” and the mutagenic call (Test System: AMES SALMONELLA TYPHIMURIUM, Strain/Indicator: TA97, Metabolic Activation: NONE, Method: STANDARD PLATE) was “inactive; negative”. The mutagenic call (Test System: AMES SALMONELLA TYPHIMURIUM, Strain/Indicator: TA97, Metabolic Activation: RAT, LIVER, S-9, AROCLOR 1254, Method: STANDARD PLATE) was “inactive; negative”, the mutagenic call (Test System: AMES SALMONELLA TYPHIMURIUM, Strain/Indicator: TA98, Metabolic Activation: GUINEA PIG, LIVER, S-9, PCB, Method: PREINCUBATION) was “inactive; negative” and the mutagenic call (Test System: AMES SALMONELLA TYPHIMURIUM, Strain/Indicator: TA98, Metabolic Activation: HAMSTER, LIVER, S-9, AROCLOR 1254 (10%), Method: PREINCUBATION) was “inactive; negative”. For the same compound, the mutagenic call (Test System: AMES SALMONELLA TYPHIMURIUM, Strain/Indicator: TA98, Metabolic Activation: HAMSTER, LIVER, S-9, AROCLOR 1254, Method: STANDARD PLATE) was “inactive; negative”, the mutagenic call (Test System: AMES SALMONELLA TYPHIMURIUM, Strain/Indicator: TA98, Metabolic Activation: HAMSTER, LIVER, S-9, PCB, Method: PREINCUBATION) was “inactive; negative” and the mutagenic call (Test System: AMES SALMONELLA TYPHIMURIUM, Strain/Indicator: TA98, Metabolic Activation: MOUSE, LIVER, S-9, AROCLOR 1254, Method: STANDARD PLATE) was “inactive; negative”. For the same compound, the mutagenic call (Test System: AMES SALMONELLA TYPHIMURIUM, Strain/Indicator: TA98, Metabolic Activation: MOUSE, LIVER, S-9, PCB, Method: PREINCUBATION) was “inactive; negative”, the mutagenic call (Test System: AMES SALMONELLA TYPHIMURIUM, Strain/Indicator: TA98, Metabolic Activation: NONE, Method: PREINCUBATION) was “inactive; negative” and the mutagenic call (Test System: AMES SALMONELLA TYPHIMURIUM, Strain/Indicator: TA98, Metabolic Activation: NONE, Method: STANDARD PLATE) was “inactive; negative”. For the same compound, the mutagenic call (Test System: AMES SALMONELLA TYPHIMURIUM, Strain/Indicator: TA98, Metabolic Activation: RAT, LIVER, S-9, AROCLOR 1254 (10%), Method: PREINCUBATION) was “inactive; negative”, the mutagenic call (Test System: AMES SALMONELLA TYPHIMURIUM, Strain/Indicator: TA98, Metabolic Activation: RAT, LIVER, S-9, AROCLOR 1254, Method: STANDARD PLATE) was “inactive; negative” and the mutagenic call (Test System: AMES SALMONELLA TYPHIMURIUM, Strain/Indicator: TA98, Metabolic Activation: RAT, LIVER, S-9, ETHANOL, Method: STANDARD PLATE) was “inactive; negative”. The mutagenic call (Test System: AMES SALMONELLA TYPHIMURIUM, Strain/Indicator: TA98, Metabolic Activation: RAT, LIVER, S-9, PCB, Method: PREINCUBATION) was “inactive; negative”, the mutagenic call (Test System: AMES SALMONELLA TYPHIMURIUM, Strain/Indicator: TA98, Metabolic Activation: RAT, LIVER, S-9, PYRAZOLE, Method: STANDARD PLATE) was “inactive; negative” and the mutagenic call (Test System: AMES SALMONELLA TYPHIMURIUM, Strain/Indicator: TA100, Metabolic Activation: GUINEA PIG, LIVER, S-9, PCB, Method: PREINCUBATION) was “inactive; negative”. For the same compound, the mutagenic call (Test System: AMES SALMONELLA TYPHIMURIUM, Strain/Indicator: TA100, Metabolic Activation: HAMSTER, LIVER, S-9, AROCLOR 1254 (10%), Method: PREINCUBATION) was “inactive; negative”, the mutagenic call (Test System: AMES SALMONELLA TYPHIMURIUM, Strain/Indicator: TA100, Metabolic Activation: HAMSTER, LIVER, S-9, AROCLOR 1254, Method: STANDARD PLATE) was “inactive; negative” and the mutagenic call (Test System: AMES SALMONELLA TYPHIMURIUM, Strain/Indicator: TA100, Metabolic Activation: HAMSTER, LIVER, S-9, PCB, Method: PREINCUBATION) was “active; positive”. The mutagenic call (Test System: AMES SALMONELLA TYPHIMURIUM, Strain/Indicator: TA100, Metabolic Activation: MOUSE, LIVER, S-9, AROCLOR 1254, Method: STANDARD PLATE) was “inactive; negative”, the mutagenic call (Test System: AMES SALMONELLA TYPHIMURIUM, Strain/Indicator: TA100, Metabolic Activation: MOUSE, LIVER, S-9, PCB, Method: PREINCUBATION) was “inactive; negative” and the mutagenic call (Test System: AMES SALMONELLA TYPHIMURIUM, Strain/Indicator: TA100, Metabolic Activation: NONE, Method: PREINCUBATION) was “inactive; negative”. For the same compound, the mutagenic call (Test System: AMES SALMONELLA TYPHIMURIUM, Strain/Indicator: TA100, Metabolic Activation: NONE, Method: STANDARD PLATE) was “inactive; negative”, the mutagenic call (Test System: AMES SALMONELLA TYPHIMURIUM, Strain/Indicator: TA100, Metabolic Activation: RAT, LIVER, S-9, AROCLOR 1254 (10%), Method: PREINCUBATION) was “inactive; negative” and the mutagenic call (Test System: AMES SALMONELLA TYPHIMURIUM, Strain/Indicator: TA100, Metabolic Activation: RAT, LIVER, S-9, AROCLOR 1254, Method: STANDARD PLATE) was “inactive; negative”. For the same compound, the mutagenic call (Test System: AMES SALMONELLA TYPHIMURIUM, Strain/Indicator: TA100, Metabolic Activation: RAT, LIVER, S-9, ETHANOL, Method: STANDARD PLATE) was “inactive; negative”, the mutagenic call (Test System: AMES SALMONELLA TYPHIMURIUM, Strain/Indicator: TA100, Metabolic Activation: RAT, LIVER, S-9, PCB, Method: PREINCUBATION) was “inactive; negative” and the mutagenic call (Test System: AMES SALMONELLA TYPHIMURIUM, Strain/Indicator: TA100, Metabolic Activation: RAT, LIVER, S-9, PYRAZOLE, Method: STANDARD PLATE) was “inactive; negative”. The mutagenic call (Test System: AMES SALMONELLA TYPHIMURIUM, Strain/Indicator: TA102, Metabolic Activation: RAT, LIVER, S-9, ETHANOL, Method: STANDARD PLATE) was “inactive; negative”, the mutagenic call (Test System: AMES SALMONELLA TYPHIMURIUM, Strain/Indicator: TA102, Metabolic Activation: RAT, LIVER, S-9, PYRAZOLE, Method: STANDARD PLATE) was “inactive; negative” and the mutagenic call (Test System: AMES SALMONELLA TYPHIMURIUM, Strain/Indicator: TA1535, Metabolic Activation: HAMSTER, LIVER, S-9, AROCLOR 1254 (10%), Method: PREINCUBATION) was “inactive; negative”. For the same compound, the mutagenic call (Test System: AMES SALMONELLA TYPHIMURIUM, Strain/Indicator: TA1535, Metabolic Activation: HAMSTER, LIVER, S-9, AROCLOR 1254, Method: STANDARD PLATE) was “inactive; negative”, the mutagenic call (Test System: AMES SALMONELLA TYPHIMURIUM, Strain/Indicator: TA1535, Metabolic Activation: MOUSE, LIVER, S-9, AROCLOR 1254, Method: STANDARD PLATE) was “inactive; negative” and the mutagenic call (Test System: AMES SALMONELLA TYPHIMURIUM, Strain/Indicator: TA1535, Metabolic Activation: NONE, Method: PREINCUBATION) was “inactive; negative”. The mutagenic call (Test System: AMES SALMONELLA TYPHIMURIUM, Strain/Indicator: TA1535, Metabolic Activation: NONE, Method: STANDARD PLATE) was “inactive; negative”, the mutagenic call (Test System: AMES SALMONELLA TYPHIMURIUM, Strain/Indicator: TA1535, Metabolic Activation: RAT, LIVER, S-9, AROCLOR 1254 (10%), Method: PREINCUBATION) was “inactive; negative” and the mutagenic call (Test System: AMES SALMONELLA TYPHIMURIUM, Strain/Indicator: TA1535, Metabolic Activation: RAT, LIVER, S-9, AROCLOR 1254, Method: STANDARD PLATE) was “inactive; negative”. The mutagenic call (Test System: AMES SALMONELLA TYPHIMURIUM, Strain/Indicator: TA1535, Metabolic Activation: RAT, LIVER, S-9, PYRAZOLE, Method: STANDARD PLATE) was “inactive; negative”, the mutagenic call (Test System: AMES SALMONELLA TYPHIMURIUM, Strain/Indicator: TA1537, Metabolic Activation: HAMSTER, LIVER, S-9, AROCLOR 1254 (10%), Method: PREINCUBATION) was “inactive; negative” and the mutagenic call (Test System: AMES SALMONELLA TYPHIMURIUM, Strain/Indicator: TA1537, Metabolic Activation: HAMSTER, LIVER, S-9, AROCLOR 1254, Method: STANDARD PLATE) was “inactive; negative”. The mutagenic call (Test System: AMES SALMONELLA TYPHIMURIUM, Strain/Indicator: TA1537, Metabolic Activation: MOUSE, LIVER, S-9, AROCLOR 1254, Method: STANDARD PLATE) was “inactive; negative”, the mutagenic call (Test System: AMES SALMONELLA TYPHIMURIUM, Strain/Indicator: TA1537, Metabolic Activation: NONE, Method: PREINCUBATION) was “inactive; negative” and the mutagenic call (Test System: AMES SALMONELLA TYPHIMURIUM, Strain/Indicator: TA1537, Metabolic Activation: NONE, Method: STANDARD PLATE) was “inactive; negative”. For the same compound, the mutagenic call (Test System: AMES SALMONELLA TYPHIMURIUM, Strain/Indicator: TA1537, Metabolic Activation: RAT, LIVER, S-9, AROCLOR 1254 (10%), Method: PREINCUBATION) was “inactive; negative”, the mutagenic call (Test System: AMES SALMONELLA TYPHIMURIUM, Strain/Indicator: TA1537, Metabolic Activation: RAT, LIVER, S-9, AROCLOR 1254, Method: STANDARD PLATE) was “inactive; negative” and the mutagenic call (Test System: AMES SALMONELLA TYPHIMURIUM, Strain/Indicator: TA1537, Metabolic Activation: RAT, LIVER, S-9, PYRAZOLE, Method: STANDARD PLATE) was “inactive; negative”. The mutagenic call (Test System: AMES SALMONELLA TYPHIMURIUM, Strain/Indicator: TA1538, Metabolic Activation: HAMSTER, LIVER, S-9, AROCLOR 1254, Method: STANDARD PLATE) was “inactive; negative”, the mutagenic call (Test System: AMES SALMONELLA TYPHIMURIUM, Strain/Indicator: TA1538, Metabolic Activation: MOUSE, LIVER, S-9, AROCLOR 1254, Method: STANDARD PLATE) was “inactive; negative” and the mutagenic call (Test System: AMES SALMONELLA TYPHIMURIUM, Strain/Indicator: TA1538, Metabolic Activation: NONE, Method: STANDARD PLATE) was “inactive; negative”. For the same compound, the mutagenic call (Test System: AMES SALMONELLA TYPHIMURIUM, Strain/Indicator: TA1538, Metabolic Activation: RAT, LIVER, S-9, AROCLOR 1254, Method: STANDARD PLATE) was “inactive; negative” and the mutagenic call (Test System: TEST SALMONELLA TYPHIMURIUM, Strain/Indicator: TA1537, Metabolic Activation: RAT, LIVER, S-9, AROCLOR 1254, Method: STANDARD PLATE) was “inactive; negative”.
